Assay [1] concerns Plasmodium falciparum. Nature of the assay: Antiplasmodial activity against chloroquine-sensitive Plasmodium falciparum NF54. The format is functional, organism-based.
Assay [2] addresses T1, Fatty acid synthase (Plasmodium falciparum) (UniProt Q965D7).
T1 sequence (whole entry): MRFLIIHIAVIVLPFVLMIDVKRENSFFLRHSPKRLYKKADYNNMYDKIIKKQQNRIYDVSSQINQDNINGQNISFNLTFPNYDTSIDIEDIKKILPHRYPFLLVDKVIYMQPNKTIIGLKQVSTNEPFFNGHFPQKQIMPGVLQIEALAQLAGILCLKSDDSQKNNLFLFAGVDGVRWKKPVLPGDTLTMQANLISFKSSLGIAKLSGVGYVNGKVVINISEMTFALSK
Briefly: Inhibition of FabZ at 100 uM.

Assay [3] addresses T2, Enoyl-acyl-carrier protein reductase (Plasmodium falciparum) (UniProt Q965D5).
T2 sequence (whole entry): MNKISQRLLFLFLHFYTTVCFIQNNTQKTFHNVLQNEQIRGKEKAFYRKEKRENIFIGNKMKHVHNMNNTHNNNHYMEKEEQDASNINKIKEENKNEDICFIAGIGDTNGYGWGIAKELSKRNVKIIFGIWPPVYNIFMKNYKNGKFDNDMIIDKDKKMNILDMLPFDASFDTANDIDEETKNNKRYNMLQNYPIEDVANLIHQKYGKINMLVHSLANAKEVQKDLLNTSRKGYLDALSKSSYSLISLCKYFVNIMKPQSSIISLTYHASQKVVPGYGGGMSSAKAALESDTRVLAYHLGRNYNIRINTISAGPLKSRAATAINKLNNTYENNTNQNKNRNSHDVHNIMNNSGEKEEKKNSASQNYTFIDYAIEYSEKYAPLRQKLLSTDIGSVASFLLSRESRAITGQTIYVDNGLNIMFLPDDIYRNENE
Briefly: Inhibition of FabI at 100 uM.

Assay [4] has as its target T3, 3-oxoacyl-acyl-carrier protein reductase (Plasmodium falciparum) (UniProt Q965D6).
T3 sequence (whole entry): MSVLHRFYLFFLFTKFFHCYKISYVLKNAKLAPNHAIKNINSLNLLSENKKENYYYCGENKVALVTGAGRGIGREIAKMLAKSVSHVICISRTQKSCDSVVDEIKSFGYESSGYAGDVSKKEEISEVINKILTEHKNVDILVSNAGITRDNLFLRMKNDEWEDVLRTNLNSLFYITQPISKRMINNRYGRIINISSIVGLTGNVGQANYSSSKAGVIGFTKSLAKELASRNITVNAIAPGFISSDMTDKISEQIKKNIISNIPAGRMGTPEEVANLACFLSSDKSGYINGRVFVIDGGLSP
Nature of the assay: Inhibition of FabG at 100 uM.

For the next assay, the target named is T4, Fatty acid synthase (Plasmodium falciparum, UniProt Q965D7).
T4 sequence (Q965D7 whole entry): T1 sequence (whole entry)
Nature of the assay: Inhibition of FabZ.

The target in assay [5] is T5, Enoyl-acyl-carrier protein reductase (Plasmodium falciparum, UniProt Q965D5).
T5 sequence (Q965D5 whole entry): T2 sequence (whole entry)
Briefly: Inhibition of FabI.

Assay [6] has as its system Plasmodium falciparum. Nature of the assay: Antiplasmodial activity against chloroquine-resistant Plasmodium falciparum K1. Format: functional, organism-based.
Assay [7] addresses T6, 3-oxoacyl-acyl-carrier protein reductase (Plasmodium falciparum, UniProt Q965D6).
T6 sequence (Q965D6 whole entry): T3 sequence (whole entry)
Nature of the assay: Inhibition of FabG.

Data on 33 compounds can be found in ChEMBL document CHEMBL1148505, “Inhibition of Plasmodium falciparum fatty acid biosynthesis: evaluation of FabG, FabZ, and FabI as drug targets for flavonoids” (J Med Chem, 2006).

Activity calls are given as the source filed them. The calls are words filed in the database; no cut-off is given here.

By IC50 is commonly meant the midpoint of a concentration-inhibition curve. Low values mean inhibition by little substance, high ones a need for much substance. On to `O=c1c(O)c(-c2ccccc2)oc2ccc(O)cc12`, for which, in the assay on Plasmodium falciparum [1], inhibition was half-maximal at 36.4 µM (IC50). The outcome in assay [2], in assay [3] and in assay [4] was inactive.

For `O=C(O[C@@H]1Cc2c(O)cc(O)cc2O[C@H]1c1cc(O)c(O)c(O)c1)c1cc(O)c(O)c(O)c1` [GALLOCATECHIN GALLATE], the IC50 is 0.6 µM against Fatty acid synthase, 0.5 µM in assay [5], 40.1 µM in the assay with Plasmodium falciparum [1] and 6.2 µM with Plasmodium falciparum [6].

`Oc1cc(O)c2c(c1)O[C@@H](c1ccc(O)c(O)c1)[C@@H](O)C2` [(+)-EPICATECHIN]: the half-maximal inhibitory concentration (IC50) with Plasmodium falciparum [1] was above 150 µM. In addition, the result in assay [2], in assay [3] and in assay [4] was inactive.

With `COc1cc(OC)c2c(c1C)O[C@H](c1ccccc1)CC2=O`, the concentration for half-maximal inhibition (IC50) stood at 40 µM on Fatty acid synthase and 19.8 µM with Plasmodium falciparum [1]. The outcome in assay [3] and in assay [4] was inactive.

Turning to `O=c1cc(-c2ccccc2)oc2cc(O)ccc12` [7-HYDROXYFLAVONE], the half-maximal inhibitory concentration (IC50) against Fatty acid synthase is 20 µM; in the assay with Plasmodium falciparum [1], 65.5 µM. Besides, the result in assay [3] and in assay [4] was inactive.

`COc1cc2oc(-c3ccc(O)cc3)cc(=O)c2c(O)c1OC` [CIRSIMARITIN]: the values for the IC50 (in assay [7]; with Plasmodium falciparum [1]) were 70 µM and 16.9 µM, respectively. The result in assay [2] and in assay [3] was inactive.

For the compound `O=C1C[C@@H](c2ccc(O)cc2)Oc2cc(O)cc(O)c21` [NARINGENIN], half-maximal inhibition in the assay with Plasmodium falciparum [1] (IC50) required 141 µM. Also, the outcome in assay [2] and in assay [3] was inactive. Further, in assay [4], the outcome was Active.

On to `O=C(O[C@@H]1Cc2c(O)cc(O)cc2O[C@@H]1c1cc(O)c(O)c(O)c1)c1cc(O)c(O)c(O)c1` [EPIGALOCATECHIN GALLATE], for which the 50% inhibitory concentration (IC50) worked out at 0.4 µM against Fatty acid synthase, 0.2 µM in assay [5], 25.5 µM in the assay with Plasmodium falciparum [1] and 9.9 µM in the assay with Plasmodium falciparum [6].

As to `O=C(O[C@@H]1Cc2c(O)cc(O)cc2O[C@@H]1c1ccc(O)c(O)c1)c1cc(O)c(O)c(O)c1` [EPICATECHIN GALLATE], the IC50 is 0.4 µM on Fatty acid synthase; 0.2 µM in assay [5]; 1 µM in assay [7]; 40 µM with Plasmodium falciparum [1]; 11.3 µM in the assay on Plasmodium falciparum [6].

On to `O=c1c(O)c(-c2ccc(O)cc2)oc2cc(O)cc(O)c12` [KAEMPFEROL], for which the IC50 in assay [5] amounted to 20 µM; in assay [7] it was 4 µM; in the assay with Plasmodium falciparum [1] it was 30.4 µM. For the same compound, the outcome in assay [2] was inactive.

For the compound `COc1cc(-c2oc3cc(O)cc(O)c3c(=O)c2O)ccc1O` [ISORHAMNETIN], the 50% inhibitory concentration (IC50) in assay [5] amounted to 5 µM; in assay [7], 8.3 µM; with Plasmodium falciparum [1] it was 14.7 µM. In addition, in assay [2], the result was inactive.

Consider `O=c1c(O)c(-c2ccc(O)c(O)c2)oc2cc(O)ccc12` [FISETIN], for which the half-inhibitory concentration (IC50) worked out at 2 µM on Fatty acid synthase; 1 µM in assay [5]; 4.1 µM in assay [7]; 8.2 µM in the assay with Plasmodium falciparum [1]; 6.5 µM with Plasmodium falciparum [6].

In the assay on Plasmodium falciparum [1], `COc1ccc2c(=O)cc(-c3ccccc3)oc2c1OC` had an IC50 of 40.9 µM. For the same compound, the result in assay [2], in assay [3] and in assay [4] was inactive.

For the compound `O=c1cc(-c2ccccc2)oc2cc(O)cc(O)c12` [CHRYSIN], the concentration for half-maximal inhibition (IC50) in assay [7] was 10 µM; with Plasmodium falciparum [1], 29.8 µM. Besides, the result in assay [2] and in assay [3] was inactive.

Regarding `Oc1cc(O)c2c(c1)O[C@H](c1ccc(O)c(O)c1)[C@@H](O)C2` [CIANIDANOL], half-maximal inhibition in the assay on Plasmodium falciparum [1] (IC50) was put at 144 µM. The result in assay [2], in assay [3] and in assay [4] was inactive.

For the compound `COc1ccc(-c2cc(=O)c3c(O)c(O)c(OC)cc3o2)cc1` [LADANEIN], in the assay on Plasmodium falciparum [1], half-maximal inhibition (IC50) was put at 9 µM. In addition, the result in assay [2], in assay [3] and in assay [4] was inactive.

In turn, `Oc1cc(O)c2c(c1)O[C@@H](c1ccc(O)c(O)c1)[C@H](O)C2` [(-)-CATECHIN] showed an IC50 with Plasmodium falciparum [1] above 150 µM. For the same compound, the outcome in assay [2], in assay [3] and in assay [4] was inactive.

Take `O=c1c(-c2ccc(O)cc2)coc2cc(O)ccc12` [DAIDZEIN]: the concentration for half-maximal inhibition (IC50) came out at 30 µM on Fatty acid synthase and 104 µM with Plasmodium falciparum [1]. Besides, the result in assay [3] and in assay [4] was inactive.

With `O=c1c(O)c(-c2ccccc2)oc2cc(O)cc(O)c12` [GALANGIN], the concentration for half-maximal inhibition (IC50) in assay [7] was found to be 100 µM; with Plasmodium falciparum [1], 39.4 µM. The outcome in assay [2] and in assay [3] was inactive.

For the compound `O=c1cc(-c2ccccc2)oc2ccc(O)cc12` [6-HYDROXYFLAVONE], the half-maximal inhibitory concentration (IC50) against Fatty acid synthase is 30 µM; in the assay on Plasmodium falciparum [1], 5.3 µM. The outcome in assay [3] and in assay [4] was inactive.

`O=c1cc(-c2ccccc2)oc2cccc(O)c12` [5-HYDROXYFLAVONE]: the midpoint of inhibition with Plasmodium falciparum [1], the IC50, lay at 65.9 µM. Moreover, the outcome in assay [2], in assay [3] and in assay [4] was inactive.

As to `Oc1cc(O)c2c(c1)O[C@H](c1cc(O)c(O)c(O)c1)[C@H](O)C2` [EPIGALLOCATECHIN], in the assay on Plasmodium falciparum [1], the half-maximal inhibitory concentration (IC50) is above 150 µM. In addition, the result in assay [2], in assay [3] and in assay [4] was inactive.

Take `Oc1cc(O)c2c(c1)O[C@@H](c1cc(O)c(O)c(O)c1)[C@H](O)C2` [(-)-GALLOCATECHIN]: the concentration for half-maximal inhibition (IC50) with Plasmodium falciparum [1] was above 150 µM. Further, the outcome in assay [2], in assay [3] and in assay [4] was inactive.

Consider `O=c1c(-c2ccc(O)cc2)coc2cc(O)cc(O)c12` [GENISTEIN], for which the IC50 worked out at 7 µM on Fatty acid synthase and 38.2 µM in the assay with Plasmodium falciparum [1]. For the same compound, the result in assay [3] and in assay [4] was inactive.

Compound `Oc1cc(O)c2c(c1)O[C@H](c1ccc(O)c(O)c1)[C@H](O)C2` [(-)-EPICATECHIN] displayed a half-inhibitory concentration (IC50) in the assay with Plasmodium falciparum [1] above 150 µM. The result in assay [2], in assay [3] and in assay [4] was inactive.

As for `COc1ccc(-c2coc3cc(O)cc(O)c3c2=O)cc1` [BIOCHANIN], the half-maximal inhibitory concentration (IC50) against Fatty acid synthase is 8 µM; with Plasmodium falciparum [1], 34.3 µM. Moreover, the outcome in assay [3] and in assay [4] was inactive.

For `COc1cc(O)c2c(=O)c(OC)c(-c3ccc(OC)c(OC)c3)oc2c1` [RETUSIN], the IC50 in the assay with Plasmodium falciparum [1] amounted to 73.3 µM. In addition, the result in assay [2], in assay [3] and in assay [4] was inactive.

In turn, `O=c1c(O)c(-c2ccccc2)oc2ccccc12` [FLAVONOL] yielded an IC50 in the assay on Plasmodium falciparum [1] of 24 µM. Further, the result in assay [2], in assay [3] and in assay [4] was inactive.

Turning to `O=c1cc(-c2ccc(O)cc2)oc2cc(O)cc(O)c12` [APIGENIN], the IC50 turned out to be 50 µM in assay [5] and 17.4 µM in the assay with Plasmodium falciparum [1]. In addition, the outcome in assay [2] and in assay [4] was inactive.

For the compound `COc1cc2c(c(O)c1OC)C(=O)C[C@@H](c1ccc(O)cc1)O2`, the IC50 with Plasmodium falciparum [1] came to 8.8 µM. Also, the outcome in assay [2], in assay [3] and in assay [4] was inactive.

For `O=c1c(O)c(-c2ccccc2)oc2cc(O)ccc12` [3,7-DIHYDROXYFLAVONE], the IC50 in assay [5] is 10 µM; with Plasmodium falciparum [1], 49.2 µM. In addition, the outcome in assay [2] and in assay [4] was inactive.

In turn, `COc1cc(O)c2c(=O)cc(-c3ccc(O)cc3)oc2c1` [GENKWANIN] came in with a concentration for half-maximal inhibition (IC50) in the assay on Plasmodium falciparum [1] of 111 µM. Moreover, the result in assay [2], in assay [3] and in assay [4] was inactive.

Take `O=c1cc(-c2ccccc2)oc2ccccc12` [FLAVONE]: in the assay on Plasmodium falciparum [1], the midpoint of inhibition, the IC50, lay at 60.8 µM. Moreover, the outcome in assay [2], in assay [3] and in assay [4] was inactive.
